Assay results reported in patent publication US11890356B2 (The General Hospital Corporation, priority 2017, dated 2024).

Columns and labels:
[1] = tested on: acetylation state of α-Tubulin and histones (H3K9 and H4K12); assay: Acetylation level assay (Western blot) in human iPSC-derived neural progenitor cells; type: cell-based; conditions: ACY1215 5 μM, other compounds 10 μM; 6 h at 37° C.
HDAC6 [2] = target: HDAC6 (Homo sapiens (Human), UniProt Q9UBN7); assay: HDAC IC50 assay by Nanosyn (Caliper microfluidics mobility shift detection); type: biochemical
Sequence of HDAC6 (Homo sapiens (Human), UniProt Q9UBN7) (Q9UBN7 whole entry): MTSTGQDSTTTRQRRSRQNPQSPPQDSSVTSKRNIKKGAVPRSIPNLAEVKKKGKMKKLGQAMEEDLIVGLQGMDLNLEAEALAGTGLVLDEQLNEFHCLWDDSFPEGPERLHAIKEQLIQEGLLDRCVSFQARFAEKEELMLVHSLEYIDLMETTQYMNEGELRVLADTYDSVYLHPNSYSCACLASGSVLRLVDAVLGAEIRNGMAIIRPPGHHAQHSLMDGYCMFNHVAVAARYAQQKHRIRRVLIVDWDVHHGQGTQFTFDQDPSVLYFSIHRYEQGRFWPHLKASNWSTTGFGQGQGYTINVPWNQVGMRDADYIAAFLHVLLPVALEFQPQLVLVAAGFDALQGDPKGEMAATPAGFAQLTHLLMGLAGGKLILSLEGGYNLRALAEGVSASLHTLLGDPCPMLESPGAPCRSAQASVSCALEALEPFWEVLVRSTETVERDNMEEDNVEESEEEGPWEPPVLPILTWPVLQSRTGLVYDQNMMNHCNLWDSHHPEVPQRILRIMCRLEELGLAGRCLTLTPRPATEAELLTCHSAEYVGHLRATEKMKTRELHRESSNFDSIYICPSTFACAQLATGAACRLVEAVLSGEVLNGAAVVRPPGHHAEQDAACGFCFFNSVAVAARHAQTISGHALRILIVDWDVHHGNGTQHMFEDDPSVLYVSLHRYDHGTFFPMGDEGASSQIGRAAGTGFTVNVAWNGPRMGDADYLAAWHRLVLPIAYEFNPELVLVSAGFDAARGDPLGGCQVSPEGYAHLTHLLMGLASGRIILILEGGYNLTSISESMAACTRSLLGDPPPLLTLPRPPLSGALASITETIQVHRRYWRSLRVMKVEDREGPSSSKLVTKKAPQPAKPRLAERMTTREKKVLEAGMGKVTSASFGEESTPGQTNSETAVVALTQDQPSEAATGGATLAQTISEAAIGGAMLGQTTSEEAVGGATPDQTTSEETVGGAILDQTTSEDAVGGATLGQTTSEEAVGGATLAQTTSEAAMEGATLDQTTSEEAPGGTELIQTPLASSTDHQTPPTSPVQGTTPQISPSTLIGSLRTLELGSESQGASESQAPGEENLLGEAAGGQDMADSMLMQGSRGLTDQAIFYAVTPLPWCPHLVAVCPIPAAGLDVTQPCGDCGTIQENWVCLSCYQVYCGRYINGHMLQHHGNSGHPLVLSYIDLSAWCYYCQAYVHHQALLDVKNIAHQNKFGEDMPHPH

HDAC6 [3] = target: T1, HDAC6 (Rattus norvegicus (Rat), UniProt A0A8I6GM68); assay: PET/CT imaging in rats with radiolabeled Example 2; type: in vivo, Sprague-Dawley rats
T1 sequence (A0A8I6GM68 whole entry): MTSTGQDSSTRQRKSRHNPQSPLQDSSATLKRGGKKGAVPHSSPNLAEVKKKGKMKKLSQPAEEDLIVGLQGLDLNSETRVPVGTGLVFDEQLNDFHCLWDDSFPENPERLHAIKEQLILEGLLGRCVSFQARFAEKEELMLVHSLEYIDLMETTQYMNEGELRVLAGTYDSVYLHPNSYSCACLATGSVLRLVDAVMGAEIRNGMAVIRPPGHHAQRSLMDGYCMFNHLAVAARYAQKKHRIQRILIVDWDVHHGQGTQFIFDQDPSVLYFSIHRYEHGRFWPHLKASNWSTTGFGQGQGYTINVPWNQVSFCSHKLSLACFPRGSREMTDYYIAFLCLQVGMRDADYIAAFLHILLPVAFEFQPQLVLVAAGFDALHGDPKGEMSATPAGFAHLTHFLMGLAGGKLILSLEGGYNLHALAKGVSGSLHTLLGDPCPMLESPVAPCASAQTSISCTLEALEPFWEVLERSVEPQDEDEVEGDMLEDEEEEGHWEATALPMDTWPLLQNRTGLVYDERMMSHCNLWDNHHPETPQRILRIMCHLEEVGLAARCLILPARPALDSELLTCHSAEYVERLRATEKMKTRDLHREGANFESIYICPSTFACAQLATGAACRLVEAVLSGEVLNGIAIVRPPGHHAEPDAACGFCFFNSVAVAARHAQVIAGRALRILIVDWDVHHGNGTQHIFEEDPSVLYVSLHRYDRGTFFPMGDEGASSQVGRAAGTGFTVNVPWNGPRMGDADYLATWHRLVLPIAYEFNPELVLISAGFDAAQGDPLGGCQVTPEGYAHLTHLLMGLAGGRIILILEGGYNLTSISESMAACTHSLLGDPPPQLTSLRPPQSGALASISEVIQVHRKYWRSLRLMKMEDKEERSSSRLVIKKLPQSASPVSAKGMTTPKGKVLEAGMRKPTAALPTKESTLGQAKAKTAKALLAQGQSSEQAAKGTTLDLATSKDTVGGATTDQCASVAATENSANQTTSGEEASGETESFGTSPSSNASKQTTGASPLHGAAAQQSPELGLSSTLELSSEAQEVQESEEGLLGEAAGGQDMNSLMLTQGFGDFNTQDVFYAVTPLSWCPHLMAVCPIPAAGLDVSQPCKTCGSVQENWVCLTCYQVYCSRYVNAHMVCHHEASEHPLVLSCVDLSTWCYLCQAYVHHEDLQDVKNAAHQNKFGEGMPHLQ
Method: 8 male Sprague-Dawley rats (Charles River Laboratories) were used for PET imaging. […] For intravenous administration, a catheter with an extension line was placed in a lateral tail vein. Each animal received a bolus injection of either vehicle (1:1:8 DMSO/Tween80/saline) or blocking agent in solution (1 mg/kg, 1 mg/mL in 1:1:8 DMSO/Tween80/saline) immediately prior to injection of the radiotracer.
After injection of a radiotracer bolus (˜700 ρCi Example 2) a 90 min dynamic PET scan was acquired in pairs for all animals. PET scans were performed on a GammaMedica Triumph PET/CT/SPECT scanner, corrected for attenuation with a μ-map derived from the corresponding CT image, which was acquired immediately following the PET scan. The dynamic PET data was binned into 38 timeframes (8×15 s, 8×1 min, 10×2 min, 12×5) and reconstructed individually via an iterative MLEM (maximum likelihood expectation maximization) algorithm in 16 iterations.
PET images were coregistered to the CT image acquired from the same animal using AMIDE Data sets were cropped and all further image analysis was conducted using PMOD 3.3 (PMOD Technologies, Zurich, Switzerland). For maximum consistency, the data were coregistered to the Schiffer Px Rat rat brain template and data was derived from a whole brain VOI (volumes of interest) for time activity curves.

Microsome stability = conditions: hu
HDAC6 [4] = target: T1, HDAC6; assay: Autoradiography competition with radiolabeled Example 2 on rat brain slices; type: binding, Sprague-Dawley rat
Method: Sagittal slices of Sprague-Dawley rat brains were sectioned (10 μm) with a cryostat (Thermo Scientific HM550) and mounted onto ColorFrost Plus microscope slides (Fisher Scientific 12-550-18) and stored at −20° C. […] After 15 min, 50 μCi of the radiolabeled compound of Example 2 was added to each bath. After 15 minutes, all slides were washed by dipping 10× into buffer and subsequently submerged in 50 mL baths of buffer at 4° C. for 5 minutes. The slides were dried at 35° C. in a vacuum chamber. A phosphorus screen (Perkin Elmer 7001723) was exposed with the slides for 45 minutes and subsequently imaged with a Cyclone Plus Storage Phosphor (Perkin Elmer) detector. ImageJ was used to apply a Gaussian blur (3.0 radius) smoothing and a lookup table (Royal) with equivalent thresholds for brightness was applied. Raw intensity values from gray and white matter were quantified with the ImageJ measurement tool.

Hepatocyte stability = conditions: hu

Structure (SMILES) | Histone acetylation on H4K12 [1] | amount of cellular acetyl-α-Tubulin [1] | Histone acetylation on H3K9 [1] | also measured
O=C(CCCCCCNC(=O)c1cnc(N(c2ccccc2)c2ccccc2)nc1)NO [ACY-1215, ricolinostat] | significantly increased | increased |  | 
CC(CC12CC3CC(CC(C3)C1)C2)N(C)Cc1ccc(C(=O)NO)cc1 (centres unmarked) [Example 20] |  |  |  | IC50 (HDAC6 [2]): 290 nM
CN(Cc1ccc(C(=O)NO)cc1[18F])CC12CC3CC(CC(C3)C1)C2 [Example 2, 4-((((Adamantan-1-yl)methyl)(methyl)amino)methyl)-3-[^18F]fluoro-N-hydroxybenzamide] |  |  |  | brain uptake and retention (HDAC6 [3]; PET, radiotracer iv bolus): excellent; off-rate in preclinical PET (HDAC6 [3]; rat, in vivo): slow
CN(Cc1ccc(C(=O)NO)cc1F)CC12CC3CC(CC(C3)C1)C2 [Example 1, 4-(((((3s)-Adamantan-1-yl)methyl)(methyl)amino)methyl)-3-fluoro-N-hydroxybenzamide] | remained unaltered | increased | remained unaltered | Microsome stability (half-life, min) (Microsome stability): 19 min; binding of radiolabeled Example 2 to rat brain slices in presence of competitor (HDAC6 [4]; competitor at 1 μM): significantly reduced; Hepatocyte stability (half-life, min) (Hepatocyte stability): 20 (hu) min; effect of pretreatment on brain uptake of radiolabeled Example 2 (HDAC6 [3]; 1 mg/kg immediately prior to radiotracer): blocking of brain uptake; effect on time activity curve of radiolabeled Example 2 (HDAC6 [3]; 1 mg/kg, 30-minutes post radiotracer administration): clear deflection of the time activity curve
CN1CCc2c(c3ccccc3n2Cc2ccc(C(=O)NO)cc2)C1 [Tubastatin A] | remained unaltered | increased | remained unaltered | binding of radiolabeled Example 2 to rat brain slices in presence of competitor (HDAC6 [4]; competitor at final concentration of 100 μM): reduce the amount of bound radioactivity to the same background as 10 μM Example 1
CC(=O)Nc1ccc(C(=O)Nc2ccccc2N)cc1 [CI-994, tacedinaline] | significantly increased | did not increase | significantly increased | 
